Results from patent US9234025B2, “Extracellular allosteric inhibitor binding domain from a tyrosine kinase receptor” (SANOFI, priority 2009, dated 2016).

Experiments:
[1] = tested on: cognate receptor of >100 distinct ligands; assay: SPA selectivity, >100 distinct ligands to their cognate receptor; format: binding; conditions: ligands with related structural homology or entirely different chemical composition
[2] = molecular target: FGF2 (Homo sapiens, UniProt P09038); assay: ITC or STD-NMR, FGF2; format: binding; parameters: FGF2 (amino acids 9-155); made in house
Procedure: The extracellular domain (ECD; amino acids: 39-358) of the human FGFR1 gene (P11362) was PCR amplified and cloned into E. coli vector pETTEV (with a N-terminal His-tag followed by a TEV protease cleavage site), using NdeI and BamHI restriction sites. For protein production, the resulting plasmid (pET FGFR1 D1D2D3) was transformed into E. coli BL21(DE3) (Novagene). Cells were grown at 37° C. until the OD600 reached 0.6 and recombinant protein production was induced by adding 1 mM IPTG (isopropyl-b-D-thiogalactopyranoside). After 4 hours induction, cells were harvested and stored at −80° C. until usage. The cell pellet (1 L culture) was thawed and resuspended in 50 ml buffer 1 (20 mM Tris/HCl, pH 7.5, 200 mM NaCl) containing lysozyme (2 mg), and 40 U benzonase (Merck). […] Complex formation was analyzed by size exclusion chromatography and subsequent analysis on SDS-PAGE.
All STD- and 1D-NMR experiments were carried out on a BRUKER three-channel DRX600 and on a BRUKER four-channel DRX800 spectrometer at the standard temperature of 298 K and were referenced to the internal standard 3-Trimethyl-2,2,3,3-tetradeuteropropionate-sodium salt (TSP). […] For protein ligand 1D STD NMR measurements spectra were recorded with 1 mM ligand SSR128129E (100 mM DMSO stock solution) and […] protein with weak 2s RF irradiation on separated protein methyl resonances. […]

[3] = tested on: FGFR2; assay: FRS2, Erk1/2 and PLCγ phosphorylation in FGFR2-transfected HEK293 cells (western blot); format: cell-based, human; conditions: compound at 1 μM
Procedure: HEK293 cells were either transiently of stably transfected (using FuGENE 6, Roche) with hFGFR2IIIca or hFGFR2IIIca-Y328D cloned in pcDNA3 (Invitrogen). Stably transfected cells were grown in G418 (400 μg/ml) containing medium. Before stimulation, the cells were starved overnight in DMEM (0% serum), and pre-incubated with […] at the required concentration. The cells were subsequently stimulated with FGF2 (concentration between 0.5-10 ng/ml) for 5 min at 37° C. with or without SSR or SU5402 at 1 μM. After washing with ice-cold phosphate-buffered saline containing phosphatase inhibitors (Roche), cells were lysed in RIPA buffer (Tris 30 mM HCl pH 7.5, 150 mM NaCl, 1 mM EDTA, 1% triton-X, 0.5% w/v deoxycholate, containing phophatase and protease inhibitors as described by the manufacturer (Roche)). Cell lysates were centrifuged at 12,000 g for 10 min, and the supernatants were collected. Proteins were separated on Novex polyacrylamide gels (Invitrogen, Carlsbad, Calif.) and subsequently transferred onto Hybond ECL nitrocellulose membranes (Amersham Pharmacia). Following incubation with 5% non-fat milk powder in PBS, the membranes were incubated overnight at 4° C. with the following antibodies: phospho-ERK1/2 (CST:9101), phospho-FRS2 (CST:3861), phospho-PLCγ (CST:2821) and FGFR2 (F0300, Sigma).
In order to evaluate SSR effect on FGFR-controlled phosphor-signalling, HEK293 cells have been transfected with FGFR2 and the two main pathways following FGFR autophosphorylation, PLCγ and FRS2, have been studied by western blot in comparison with a published FGFR tyrosine kinase inhibitor SU5402 described to inhibit FGFR-dependent FRS2 and PLCγ cascades (Zhen et al., Oncogene 2007). In such cells, FGF induces FRS2, Erk1/2 and PLCγ phosphorylation. […] More generally, these differences in phosphorylation can be used as reporter to evaluate allosteric modulators.

FGF2, sequence (P09038 142-288): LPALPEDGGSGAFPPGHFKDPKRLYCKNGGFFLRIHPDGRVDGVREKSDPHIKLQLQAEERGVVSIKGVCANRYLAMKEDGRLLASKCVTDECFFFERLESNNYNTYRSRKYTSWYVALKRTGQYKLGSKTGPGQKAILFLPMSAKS

In the case of COc1c(C)c(C(=O)c2ccc(N)c(C(=O)[O-])c2)n2ccccc12.[Na+] [SSR], the “binding of >100 distinct ligands to their cognate receptor” value [1] is reported as “not inhibiting”, the “binding to FGF2” value [2] is reported as “failed to bind” and the “FGF-induced FRS2 phosphorylation” value [3] is reported as “only inhibits FRS2 pathway”. The “FGF-induced PLCγ phosphorylation” value [3] was “doesn't inhibit”.
